# Measurements taken from patent US8138191B2, “Inhibitor compounds and cancer treatment methods” (Critical Outcome Technologies Inc., priority 2007, dated 2012).
# Key:
# [1] = Metabolic Stability (liver microsomes, rat, Sprague-Dawley); format: in vitro ADME; details: 1.0E−06 M, 60 min
# Description: Metabolic stability was determined in human (mixed gender and pool of 50) monkey (male Cynomolgus, pool of 6 or more), dog male, beagle, pool of 4 or more) and rat (male Sprague-Dawley, pool of 100 or more) liver microsomes. […] Four reference substrates (1 μM) were tested simultaneously with COTI-2. […] Peak areas corresponding to COTI-2 were recorded by HPLC-MS/MS. Metabolic stability, expressed as percent of COTI-2 remaining, was calculated by comparing the peak area of COTI-2 at 60 min to time zero.
# human plasma = assay: in vitro; format: in vitro ADME; details: 10 µM
# Description: (§1) Commercially obtained (Rockland Immunochemicals Inc.), non-sterile, species-specific plasma (human, monkey, and dog) with sodium anticoagulant added was utilized for this study. […] Dialysis membrane strips (12-14K MWCO) were presoaked in water and ethanol, rinsed and then kept in buffer until use. Following assembly of the 96-well dialysis apparatus, […] membrane strips placed between the dialysis and sample compartments. The dialysate compartment was loaded with 0.15 ml phosphate buffer was added to the dialysis side of each well. Plasma (unfiltered) was spiked with 10 μM COTI-2 (1% DMSO) and 0.15 ml added to the sample side of each well. After loading, samples are covered and incubated at 37° C. until equilibrium was reached (at least 8 hours). Equal volumes of sample were removed from the buffer and plasma sides of each well, diluted with acetonitrile/buffer and centrifuged. Also at this time an additional sample was prepared (in duplicate) by spiking COTI-2 in plasma at 10 μM, followed by sampling and diluting in acetonitrile/buffer in the same manner as the incubated plasma sample. This calibration sample served as the basis of a recovery determination. The supernatants were analyzed by HPLC-MS/MS and the peak response of COTI-2 in both dialysis and sample compartments, and in the calibration sample, were subsequently determined in two independent replicates. […] The HPLC conditions consist of a binary LC pump with autosampler, a C18 column (2×20 mm), and gradient elution. The percent bound to plasma/serum proteins and percent recovery of the compounds were calculated. The recovery determination serves as an indicator as to the reliability of the calculated protein binding value.
# in vitro = in vitro ADME
# Description: as §1
# [2] = tested on: DMS-114 and SHP-77 SCLC cell lines; assay: Cell viability by trypan blue exclusion; format: cell-based, human; details: 250 nM, within four days
# Description: Cell viability was determined at 24, 48, and 96 hrs by the trypan exclusion method. Whole cell lysates were prepared using standard procedures and fifty micrograms of lysate protein was separated on SDS-PAGE gels and analyzed by western blotting.
# Cell viability was determined at 24, 48, and 96 h by the trypan exclusion method. Whole cell lysates were prepared using standard procedures and 50 μg of lysate protein was separated on SDS-PAGE gels and analyzed by western blotting.
# DMS114 and SHP77 cells = assay: Western blotting of AKT pSer473 and AKT phospho-protein targets; format: cell-based, human; details: for mTOR phospho-Ser 2448: 300 nM, time course
# Description: Routine laboratory methods were employed for the production of cellular lysates, protein quantification, SDS-PAGE and western blotting. All antibodies were obtained from Cell Signaling and Abcam. To determine total AKT & AKT2 in DMS114 cells, 5×10^4 cells were incubated for 48 h with 10-100 ng of AKT2 siRNA or a scrambled control oligonucleotide. Cells were lysed and 50 μg of protein was separated by SDS-PAGE and blotted with antibody to total AKT or AKT2.
# The phospho-AKT status at Ser473 was determined in the presence of COTI-2 utilizing western blotting. […] The inhibition of AKT phosphorylation at Ser473 correlates with the reduction in the phosphorylation of GSK-3α/β (pSer21/9), which is a downstream target of activated phospho-AKT. […] The complete time course of the AKT phospho-Ser473 status in DMS114 and SHP77 cells during incubation with COTI-2 is documented in FIG. 39.
# A complex relationship exists between Raptor- and Rictor-containing mTor complexes mTORC1 and mTORC2, respectively, and AKT. mTORC2 activates AKT by Ser473 phosphorylation; in turn, activated AKT phosphorylates TSC2, which prevents its interaction with Rheb and thus the hydrolysis of GTP associated with Rheb. As a result, Rheb-GTP activates mTOR by phosphorylation on Ser2448. […] The results shown in FIGS. 40-45 agree with this hypothesis. […] Phosphorylation of the PTEN C terminal was reported to stabilize PTEN and protect against ubiquitin-mediated degradation (Nat Rev Cancer, 6: 184-192). One implication of this observation is that COTI-2 may activate PTEN and thus, by reducing the amount of PIP3, contribute to the inhibition of AKT activity.
# A460 = assay: in vitro IC50 against cancer cell lines, A460; format: cell-based; details: Homo sapiens, 72 h; A460, NSCLC, 3 days
# Description: Briefly, cells were plated in plastic tissue culture plates and grown under standard conditions for each cell line, in carbon dioxide/oxygen atmosphere in plastic tissue culture plates, in the presence of COTI-2 or COTI-219 compounds at 35° C. for 3 days. Control cultures were treated with vehicle minus compound. Cells were counted after 3 days in culture and at a cell density of no more than 80%. The following cell lines, obtained from the National Cancer Institute, were tested: human SCLC cell lines DMS153, DMS114, SHP77; human NSCLC cell lines H226, A460, A560; human breast cancer cell lines T47D, MCF7; human colon cancer cell line HT29; and, human Leukemia cell lines K562, HL60.
compound,measurement,setting,value
S=C(N/N=C1/CCCc2cccnc21)N1CCN(c2ccccn2)CC1 [COTI-2],Mean Parent Remaining,[1],1%
same,% Protein Bound 1st,human plasma,99.8%
same,% Protein Bound 2nd,human plasma,>99.9%
same,% Protein Bound Mean,human plasma,99.8%
same,percent protein bound,human plasma,> 99%
same,recovery at 10 µM,"in vitro; human, % Recovery 1st",6.7%
same,recovery at 10 µM,"in vitro; human, % Recovery 2nd",2.9%
same,recovery at 10 µM,"in vitro; human, % Recovery Mean",4.8%
same,recovery at 10 µM,"in vitro; human, percent recovery",< 50%
same,recovery at 10 µM,"in vitro; mixed breeds, dog, % Recovery 1st",42.6%
same,recovery at 10 µM,"in vitro; mixed breeds, dog, % Recovery 2nd",32.8%
same,recovery at 10 µM,"in vitro; mixed breeds, dog, % Recovery Mean",37.7%
same,recovery at 10 µM,"in vitro; mixed breeds, dog, percent recovery",< 50%
same,original tumor cells killed,[2],up to 80%
same,phosphorylation of GSK-3α/β (pSer21/9),DMS114 and SHP77 cells; 250 nM,reduction
same,AKT Ser473 phosphorylation,"DMS114 and SHP77 cells; 250 nM, 2 h",profound inhibition
same,PTEN phospho-Ser380,DMS114 and SHP77 cells; DMS114 cells,strong but transient increase
same,mTOR phospho-Ser 2448,DMS114 and SHP77 cells; DMS114 cells,initial decrease in phospho-Ser 2448 at 2 hrs followed by a more sustained decrease at 24 and 48 hrs
same,mTOR phospho-Ser 2448,DMS114 and SHP77 cells; SHP77 cells,only the decrease at 2 hrs of incubation was observed
same,IC50,A460,7.9 µM
